# System: PKCδ
# Assay: Immunofluorescence for PKCδ in HCEC monolayers
# Type: cell-based, human
# Details: PMA 1 μM; 15 minutes; scratched monolayers
# Protocol: HCEC monolayers were grown to confluency and were scratched with a 10 μl pipette tip or left unscratched, and then the monolayers were treated for 15 minutes with (A-B) buffer, (C-D) PMA (1 μM), (E-F) 250 ng/ml CAP37, and (G-J) 500 ng/ml CAP37. Cells were stained for PKCδ (250 ng/ml; (A-H)), and PKCα (1 μg/ml; (I-J)) and detected using immunofluorescence (4 μg/ml, ALEXA FLUOR® 488 dye (Life Technologies Corp., Grand Island, N.Y.)). […] Scratched monolayers that were treated for 18 hours with CAP37 (250 ng/ml; (L)) or left untreated (K) were stained for PKCδ. […] Scale bars, 20 μm.
# Immunofluorescence: HCECs and primary HCECs were cultured on Lab-Tek® II glass chamber slides (Nunc, Rochester, N.Y.) and starved overnight in basal media. For wounding studies, monolayers were scratched with a 10 μl pipette tip or left unscratched and treated with 1 μM phorbol 12-myristate 13-acetate (PMA, Sigma-Aldrich), rCAP37 (25-500 ng/ml), or basal KSFM (Gibco) for 15 minutes. After treatment, the cells were fixed in 4% (v/v) formaldehyde solution (Thermo, Rockford, Ill.) in PBS (Gibco) for 20 minutes at room temperature followed by permeabilization in 0.5% TRITON™-X 100 (Mallinckrodt, St. Louis, Mo.) in PBS for 10 minutes. Remaining formaldehyde was quenched with 0.05 M ammonium chloride (NH4Cl, Sigma-Aldrich, St. Louis, Mo.) in PBS for 10 minutes. […]
structure (smiles),measurement,value
"CCCCCCCCCCCCCC(=O)O[C@@H]1[C@@H](C)[C@@]2(O)[C@@H](C=C(CO)C[C@]3(O)C(=O)C(C)=C[C@@H]23)[C@@H]2C(C)(C)[C@]12OC(C)=O [PMA, phorbol 12-myristate 13-acetate, reference compound]","PKCδ staining, in words",increased staining

# From US11884710B2, “Peptide compounds and methods of use in wound healing” (priority 2013, dated 2024)
